Test results: PubChem BioAssay (NCI)
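Abbreviation: GI50, concentration required for 50% inhibition of growth. TGI denotes the concentration required for complete inhibition of growth.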

What was measured:
Assay in all cases: DTP human tumour cell line panel, 384-well format
[1] = tested on: 786-0 renal
[2] = tested on: A498 renal
[3] = tested on: A549 NSCLC
[4] = tested on: ACHN renal
[5] = tested on: BT-549 breast
[6] = tested on: CAKI-1 renal
[7] = tested on: CCRF-CEM leukemia
[8] = tested on: COLO 205 colon
[9] = tested on: EKVX NSCLC
[10] = tested on: HCC-2998 colon
[11] = tested on: HCT-116 colon
[12] = tested on: HCT-15 colon
[13] = tested on: HL-60(TB) leukemia
[14] = tested on: HOP-62 NSCLC
[15] = tested on: HOP-92 NSCLC
[16] = tested on: HS 578T breast
[17] = tested on: HT29 colon
[18] = tested on: IGROV1 ovarian
[19] = tested on: K-562 leukemia
[20] = tested on: KM12 colon
[21] = tested on: M14 melanoma
[22] = tested on: MALME-3M melanoma
[23] = tested on: MCF7 breast
[24] = tested on: MDA-MB-435 melanoma
[25] = tested on: MDA-MB-468 breast
[26] = tested on: MOLT-4 leukemia
[27] = tested on: NCI-H226 lung
[28] = tested on: NCI-H23 lung
[29] = tested on: NCI-H322M lung
[30] = tested on: NCI-H460 NSCLC
[31] = tested on: NCI-H522 lung
[32] = tested on: NCI/ADR-RES ovarian
[33] = tested on: OVCAR-3 ovarian
[34] = tested on: OVCAR-4 ovarian
[35] = tested on: OVCAR-5 ovarian
[36] = tested on: OVCAR-8 ovarian
[37] = tested on: PC-3 prostate
[38] = tested on: RPMI-8226 leukemia
[39] = tested on: RXF 393 renal
[40] = tested on: SF-268 CNS
[41] = tested on: SF-295 CNS
[42] = tested on: SF-539 CNS
[43] = tested on: SK-MEL-28 melanoma
[44] = tested on: SK-MEL-5 melanoma
[45] = tested on: SK-OV-3 ovarian
[46] = tested on: SN12C renal
[47] = tested on: SNB-19 CNS
[48] = tested on: SNB-75 CNS
[49] = tested on: SW-620 colon
[50] = tested on: T-47D breast
[51] = tested on: TK-10 renal
[52] = tested on: U251 glioblastoma
[53] = tested on: UACC-257 melanoma
[54] = tested on: UO-31 renal

Question: How did the GI50 [1] turn out when `COc1cc(C(=O)NC2CCN(C)CC2)ccc1Nc1ncc2c(n1)N(C1CCCC1)CC(F)(F)C(=O)N2C` was run?
Answer: 41 nM

Question: What about the TGI [1] of the same compound?
Answer: 1350 nM

Question: And the GI50 [2]?
Answer: 106 nM

Question: What about the TGI [2] of the same compound?
Answer: 12300 nM

Question: What about the GI50 [3] of the same compound?
Answer: < 10 nM

Question: What about the TGI [3] of the same compound?
Answer: 707 nM

Question: What about the GI50 [4] of the same compound?
Answer: 666 nM

Question: And the TGI [4]?
Answer: 14100 nM

Question: And the GI50 [5]?
Answer: 11.3 nM

Question: And the TGI [5]?
Answer: 159 nM

Question: And the GI50 [6]?
Answer: 194 nM

Question: What about the TGI [6] of the same compound?
Answer: 10600 nM

Question: And the GI50 [7]?
Answer: < 10 nM

Question: What about the TGI [7] of the same compound?
Answer: < 10 nM

Question: What about the GI50 [8] of the same compound?
Answer: < 10 nM

Question: And the TGI [8]?
Answer: 10700 nM

Question: What about the GI50 [9] of the same compound?
Answer: 79.3 nM

Question: What about the TGI [9] of the same compound?
Answer: 2700 nM

Question: What about the GI50 [10] of the same compound?
Answer: 11.6 nM

Question: What about the TGI [10] of the same compound?
Answer: 39.6 nM

Question: And the GI50 [11]?
Answer: < 10 nM

Question: What about the TGI [11] of the same compound?
Answer: 1170 nM

Question: What about the GI50 [12] of the same compound?
Answer: 219 nM

Question: What about the TGI [12] of the same compound?
Answer: 1220 nM

Question: And the GI50 [13]?
Answer: < 10 nM

Question: What about the TGI [13] of the same compound?
Answer: < 10 nM

Question: And the GI50 [14]?
Answer: < 10 nM

Question: And the TGI [14]?
Answer: 2210 nM

Question: What about the GI50 [15] of the same compound?
Answer: 20.7 nM

Question: And the TGI [15]?
Answer: 902 nM

Question: What about the GI50 [16] of the same compound?
Answer: < 10 nM

Question: What about the TGI [16] of the same compound?
Answer: 31.1 nM

Question: What about the GI50 [17] of the same compound?
Answer: < 10 nM

Question: What about the TGI [17] of the same compound?
Answer: 21.5 nM

Question: And the GI50 [18]?
Answer: 18.6 nM

Question: What about the TGI [18] of the same compound?
Answer: 2070 nM

Question: What about the GI50 [19] of the same compound?
Answer: < 10 nM

Question: And the TGI [19]?
Answer: 19.7 nM

Question: And the GI50 [20]?
Answer: < 10 nM

Question: What about the TGI [20] of the same compound?
Answer: 11200 nM

Question: What about the GI50 [21] of the same compound?
Answer: 12.5 nM

Question: And the TGI [21]?
Answer: 74.3 nM

Question: And the GI50 [22]?
Answer: 29.5 nM

Question: And the TGI [22]?
Answer: 1590 nM

Question: And the GI50 [23]?
Answer: < 10 nM

Question: What about the TGI [23] of the same compound?
Answer: 1440 nM

Question: And the GI50 [24]?
Answer: < 10 nM

Question: What about the TGI [24] of the same compound?
Answer: 12.2 nM

Question: And the GI50 [25]?
Answer: < 10 nM

Question: What about the TGI [25] of the same compound?
Answer: < 10 nM

Question: And the GI50 [26]?
Answer: < 10 nM

Question: What about the TGI [26] of the same compound?
Answer: < 10 nM

Question: What about the GI50 [27] of the same compound?
Answer: 1560 nM

Question: What about the TGI [27] of the same compound?
Answer: 6190 nM

Question: What about the GI50 [28] of the same compound?
Answer: < 10 nM

Question: What about the TGI [28] of the same compound?
Answer: 20 nM

Question: And the GI50 [29]?
Answer: 842 nM

Question: And the TGI [29]?
Answer: 11800 nM

Question: And the GI50 [30]?
Answer: 11.5 nM

Question: And the TGI [30]?
Answer: 35.5 nM

Question: What about the GI50 [31] of the same compound?
Answer: < 10 nM

Question: And the TGI [31]?
Answer: < 10 nM

Question: And the GI50 [32]?
Answer: 1660 nM

Question: What about the TGI [32] of the same compound?
Answer: 3980 nM

Question: What about the GI50 [33] of the same compound?
Answer: < 10 nM

Question: What about the TGI [33] of the same compound?
Answer: < 10 nM

Question: What about the GI50 [34] of the same compound?
Answer: 1640 nM

Question: And the TGI [34]?
Answer: 7570 nM

Question: And the GI50 [35]?
Answer: 12.2 nM

Question: What about the TGI [35] of the same compound?
Answer: 1290 nM

Question: What about the GI50 [36] of the same compound?
Answer: 12.3 nM

Question: And the TGI [36]?
Answer: 29.3 nM

Question: And the GI50 [37]?
Answer: 33.8 nM

Question: What about the TGI [37] of the same compound?
Answer: 13200 nM

Question: What about the GI50 [38] of the same compound?
Answer: 18.8 nM

Question: What about the TGI [38] of the same compound?
Answer: 43.7 nM

Question: What about the GI50 [39] of the same compound?
Answer: < 10 nM

Question: What about the TGI [39] of the same compound?
Answer: 35 nM

Question: What about the GI50 [40] of the same compound?
Answer: < 10 nM

Question: What about the TGI [40] of the same compound?
Answer: < 10 nM

Question: What about the GI50 [41] of the same compound?
Answer: 29.9 nM

Question: And the TGI [41]?
Answer: 134 nM

Question: What about the GI50 [42] of the same compound?
Answer: 17.2 nM

Question: What about the TGI [42] of the same compound?
Answer: 263 nM

Question: What about the GI50 [43] of the same compound?
Answer: 46.4 nM

Question: And the TGI [43]?
Answer: 4740 nM

Question: And the GI50 [44]?
Answer: < 10 nM

Question: What about the TGI [44] of the same compound?
Answer: 180 nM

Question: What about the GI50 [45] of the same compound?
Answer: 11.4 nM

Question: What about the TGI [45] of the same compound?
Answer: 494 nM

Question: What about the GI50 [46] of the same compound?
Answer: 43.9 nM

Question: And the TGI [46]?
Answer: 1750 nM

Question: What about the GI50 [47] of the same compound?
Answer: < 10 nM

Question: What about the TGI [47] of the same compound?
Answer: 3080 nM

Question: What about the GI50 [48] of the same compound?
Answer: 57.4 nM

Question: And the TGI [48]?
Answer: 7490 nM

Question: And the GI50 [49]?
Answer: < 10 nM

Question: And the TGI [49]?
Answer: 97.4 nM

Question: What about the GI50 [50] of the same compound?
Answer: 28.2 nM

Question: What about the TGI [50] of the same compound?
Answer: 365 nM

Question: What about the GI50 [51] of the same compound?
Answer: 1090 nM

Question: What about the TGI [51] of the same compound?
Answer: 4950 nM

Question: What about the GI50 [52] of the same compound?
Answer: < 10 nM

Question: What about the TGI [52] of the same compound?
Answer: 1440 nM

Question: What about the GI50 [53] of the same compound?
Answer: 21.7 nM

Question: What about the TGI [53] of the same compound?
Answer: 2060 nM

Question: And the GI50 [54]?
Answer: 1310 nM

Question: And the TGI [54]?
Answer: 7870 nM
